How the values were obtained:
EGFR = EGFR (UniProt P00533)
EGFR (mouse) = EGFR (mouse) (UniProt P00533); conditions: mk

Chain of EGFR (P00533 whole entry, looked up): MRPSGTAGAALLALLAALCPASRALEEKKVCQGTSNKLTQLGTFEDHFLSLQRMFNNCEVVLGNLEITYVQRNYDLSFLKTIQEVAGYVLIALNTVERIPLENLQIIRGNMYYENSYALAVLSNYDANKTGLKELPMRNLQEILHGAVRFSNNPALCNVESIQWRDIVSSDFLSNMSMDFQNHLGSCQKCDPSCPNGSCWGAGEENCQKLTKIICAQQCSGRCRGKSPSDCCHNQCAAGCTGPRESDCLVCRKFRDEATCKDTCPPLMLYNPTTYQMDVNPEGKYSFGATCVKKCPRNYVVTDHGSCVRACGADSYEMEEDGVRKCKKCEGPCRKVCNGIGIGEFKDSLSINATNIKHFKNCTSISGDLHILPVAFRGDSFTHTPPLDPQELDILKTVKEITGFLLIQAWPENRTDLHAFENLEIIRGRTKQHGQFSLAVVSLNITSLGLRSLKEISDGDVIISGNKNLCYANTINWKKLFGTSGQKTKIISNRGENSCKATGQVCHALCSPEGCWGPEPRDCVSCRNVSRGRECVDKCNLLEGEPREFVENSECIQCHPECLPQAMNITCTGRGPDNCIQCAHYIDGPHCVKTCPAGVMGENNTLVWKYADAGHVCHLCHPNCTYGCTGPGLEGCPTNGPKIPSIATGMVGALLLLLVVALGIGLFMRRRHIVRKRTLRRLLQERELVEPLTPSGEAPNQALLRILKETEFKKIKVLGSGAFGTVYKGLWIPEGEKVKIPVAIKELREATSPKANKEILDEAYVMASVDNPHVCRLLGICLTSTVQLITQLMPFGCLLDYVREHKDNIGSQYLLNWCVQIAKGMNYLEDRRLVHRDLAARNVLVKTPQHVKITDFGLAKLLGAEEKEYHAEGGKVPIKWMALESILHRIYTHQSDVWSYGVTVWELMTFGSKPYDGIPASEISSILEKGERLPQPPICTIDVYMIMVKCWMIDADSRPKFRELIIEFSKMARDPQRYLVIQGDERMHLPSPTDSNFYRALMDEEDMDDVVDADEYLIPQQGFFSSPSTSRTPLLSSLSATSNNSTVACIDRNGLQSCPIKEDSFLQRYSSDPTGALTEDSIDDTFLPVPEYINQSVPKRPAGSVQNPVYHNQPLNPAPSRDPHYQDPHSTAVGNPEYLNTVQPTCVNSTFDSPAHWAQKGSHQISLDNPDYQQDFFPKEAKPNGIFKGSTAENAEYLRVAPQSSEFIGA

| SMILES | IC50 (EGFR) | IC50 (EGFR (mouse)) |
| --- | --- | --- |
| O=C1c2cc(O)cc(O)c2C(=O)c2c1cc(O)c(CO)c2O | 6.7 µM | 10 µM |
| COC(=O)C(CCC(C)=O)c1c(O)cc2c(c1O)C(=O)c1c(O)cc(O)cc1C2=O (centres undefined) | 17 µM | 28 µM |
| O=C1c2cc(O)cc(O)c2C(=O)c2c1cc(O)c(C1CCOC1=O)c2O (centres undefined) | 11 µM | 35 µM |
| O=C1c2cc(O)cc(O)c2C(=O)c2c1cc(O)c(C(CO)CCO)c2O (centres undefined) | 21 µM | 22 µM |
| CC(=O)CCC(C(=O)O)c1c(O)cc2c(c1O)C(=O)c1c(O)cc(O)cc1C2=O (centres undefined) | 21 µM | > 50 µM |
| C[C@]12CC[C@@H](CO1)c1c(cc3c(c1O)C(=O)c1c(O)cc(O)cc1C3=O)O2 | 38 µM | 18 µM |
| O=C1c2cc(O)cc(O)c2C(=O)c2c1cc(O)c(C(CCO)C(=O)O)c2O (centres undefined) | 10.5 µM | 16 µM |

From the Kinase Knowledgebase extract (Sharma et al. 2016)
